The subject of data set [1] is K. pneumoniae A9977. As to the kind of experiment: Antibiotic activity in nutrient broth (MIC), K. pneumoniae A9977. The format is cell-based. The settings on record: Klebsiella pneumoniae, 10^-4 dilution, Ex. 1/Ex. 2 figures recalculated on penicillin content. From the text: (§1) ANTIBIOTIC ACTIVITY IN NUTRIENT BROTH
(§2) **Dilution of overnight broth culture
(§3) +These figures were […] on the basis that there was only 60.61%
(§4) amoxicillin in the sample; in other words, the numerical values were
(§5) lowered, i.e. improved.
(§6) ----//These figures were recalculated on the basis that there was only

Data set [2] relates to Str. pyogenes A9604. Put plainly: Antibiotic activity in nutrient broth (MIC), Str. pyogenes. The data set is classed as cell-based. The settings on record: Streptococcus pyogenes, 45% AAB + 5% serum + 50% broth, 10^-3 dilution of overnight culture, Ex. 1/Ex. 2 figures recalculated on penicillin content.
Source text: as §1
(§7) *45% AAB + 5% serum + 50% broth
as §2, §3, §4, §5, §6

For data set [3], the system named is S. aureus Meth.-res. A15097. Put plainly: Antibiotic activity in nutrient broth (MIC), S. aureus Meth.-res. The format is cell-based. The settings on record: Staphylococcus aureus.
A short description of data set [4]: Hygroscopicity. The settings on record: solid product. The format is physicochemical.
For data set [5], the system named is Pr. mirabilis A9900. Put plainly: Antibiotic activity in nutrient broth (MIC), Pr. mirabilis. The data set is classed as cell-based. As to conditions: Proteus mirabilis, 10^-4 dilution, Ex. 1/Ex. 2 figures recalculated on penicillin content.
Source text: as §1, §2, §3, §4, §5, §6

Data set [6] is described as follows: Mouse blood levels after oral administration. The settings on record: 100 mg./kg., tested twice, average of 6 mice each.
Data set [7] relates to K. pneumoniae A15130. As to the kind of experiment: Antibiotic activity in nutrient broth (MIC), K. pneumoniae A15130. The format is cell-based. The settings on record: Klebsiella pneumoniae.
Data set [8] concerns Ser. marcescens A20019. Put plainly: Antibiotic activity in nutrient broth (MIC), Ser. marcescens. The format is cell-based. As to conditions: Serratia marcescens, 10^-4 dilution, Ex. 1/Ex. 2 figures recalculated on penicillin content.
Source text: as §1, §2, §3, §4, §5, §6

In data set [9] the test system is Ent. cloacae A9659. Put plainly: Antibiotic activity in nutrient broth (MIC), Ent. cloacae A9659. The format is cell-based. The settings on record: Enterobacter cloacae, 10^-4 dilution, Ex. 1/Ex. 2 figures recalculated on penicillin content.
Data set [10] deals with Ps. aeruginosa A9843A. Put plainly: Antibiotic activity in nutrient broth (MIC), Ps. aeruginosa. The data set is classed as cell-based. The settings on record: Pseudomonas aeruginosa.
Data set [11] has as its system S. aureus Smith A9537. Put plainly: Antibiotic activity in nutrient broth (MIC), S. aureus Smith. The data set is classed as cell-based. As to conditions: Staphylococcus aureus, 10^-4 dilution, Ex. 1/Ex. 2 figures recalculated on penicillin content.
Source text: as §1, §2, §3, §4, §5, §6

The test system of data set [12] is Sal. enteritidis A9531. As to the kind of experiment: Antibiotic activity in nutrient broth (MIC), Sal. enteritidis. The data set is classed as cell-based. The settings on record: Salmonella enterica, 10^-4 dilution, Ex. 1/Ex. 2 figures recalculated on penicillin content.
Source text: as §1, §2, §3, §4, §5, §6

Data set [13] is described as follows: Bioassay. As to conditions: theory 730 (Ex. 1) / 596 (Ex. 2) mcg./mg.
Data set [14] has as its system Str. pneumoniae A9585. Put plainly: Antibiotic activity in nutrient broth (MIC), Str. pneumoniae. The data set is classed as cell-based. The settings on record: Streptococcus pneumoniae, 45% AAB + 5% serum + 50% broth, 10^-3 dilution of overnight culture, Ex. 1/Ex. 2 figures recalculated on penicillin content.
Source text: as §1, §7, §2, §3, §4, §5, §6

A short description of data set [15]: Hydrolysis to parent penicillin (paper strip and liquid chromatography). The format is in vitro ADME. As to conditions: 0.2 mg./ml., pH 6.5-7.0 buffer or serum; for hydrolysis in water to parent penicillin: room temperature and 37° C.
Data set [16] can be described thus: Stability of reconstituted aqueous solution. The format is physicochemical.
Data set [17] can be described thus: Mouse blood levels after intramuscular administration. As to conditions: 10 mg./kg., average of six animals, unit assumed.
Data set [18] can be described thus: Oral and intramuscular rat blood levels. The format is in vivo.
The subject of data set [19] is Ent. cloacae A9656. As to the kind of experiment: Antibiotic activity in nutrient broth (MIC), Ent. cloacae A9656. The format is cell-based. The settings on record: Enterobacter cloacae, 10^-4 dilution, Ex. 1/Ex. 2 figures recalculated on penicillin content.
The subject of data set [20] is E. coli Juhl A15119. Put plainly: Antibiotic activity in nutrient broth (MIC), E. coli Juhl. The format is cell-based. As to conditions: Escherichia coli, JUHLA15119, 10^-4 dilution, Ex. 1/Ex. 2 figures recalculated on penicillin content.
Source text: as §1, §2, §3, §4, §5, §6

Data set [21] concerns Ent. cloacae A9657. As to the kind of experiment: Antibiotic activity in nutrient broth (MIC), Ent. cloacae A9657. The format is cell-based. The settings on record: Enterobacter cloacae, 10^-4 dilution, Ex. 1/Ex. 2 figures recalculated on penicillin content.
Data set [22] relates to S. aureus bx 1633 A9606. As to the kind of experiment: Antibiotic activity in nutrient broth (MIC), S. aureus bx 1633. The format is cell-based. As to conditions: Ex. 1/Ex. 2 figures recalculated on penicillin content.
Data set [23] can be described thus: In vitro antibacterial spectrum / activity. As to conditions: vs amoxicillin (Ex. 1) or ampicillin (Ex. 2). The format is cell-based.
For data set [24], the system named is E. coli A9675. Put plainly: Antibiotic activity in nutrient broth (MIC), E. coli A9675. The format is cell-based. The settings on record: Escherichia coli, 10^-4 dilution, Ex. 1/Ex. 2 figures recalculated on penicillin content.
Source text: as §1, §2, §3, §4, §5, §6

Data set [25] deals with Pr. morganii A15153. As to the kind of experiment: Antibiotic activity in nutrient broth (MIC), Pr. morganii. The format is cell-based. As to conditions: Morganella morganii, 10^-4 dilution, Ex. 1/Ex. 2 figures recalculated on penicillin content.
For data set [26] the following is noted: prior-art salt; cited from earlier work.
The conditions of data set [27]: in vivo, iv; cited from earlier work.
For data set [28] the following is noted: room temperature, reconstituted at 250 mg./ml.; cited from earlier work.
Where [29] appears, read: SMITHA9537, nutrient broth, no serum.
[30] abbreviates: Staphylococcus aureus, BX1633A9606, 10^-3 dilution, read-out: MIC.

This is an account of results in US4035381A, “Antibacterial agents” (priority 1976, dated 1977).

“And” between values parts separate entries of the source, which are not always exact repeats. Equal entries are not always repeated. Structures can show the parent of a compound that is named as a salt. Where two headings read alike, the source gives them in different places.

As for `CC1(C)S[C@@H]2[C@H](N3C(=O)[C@@H](c4ccc(O)cc4)NC3c3ccc(S(=O)(=O)O)o3)C(=O)N2[C@H]1C(=O)O` (mixture of isomers) [Example 1, Disodium 6-[D(-)2-(±)5-Sulfo-2-furyl-5-oxo-4-p-hydroxyphenyl-1-imidazolidinyl]penicillanate], the MIC in data set [1] is 0.13 µg/mL; in data set [2], 0.5 ng/mL; in [3] it was more than 125 µg/mL; in data set [5] it was 0.25 µg/mL; in data set [7], 125 µg/mL; in data set [8] it was 32 µg/mL. Moreover, the MIC was 63 µg/mL in data set [9]; more than 125 µg/mL in data set [10]; 0.13 µg/mL in data set [11] (SMITHA9537, +50% serum); 0.06 µg/mL in data set [11] (setting [29]); 0.13 µg/mL in data set [12]; 0.5 ng/mL in data set [14]. Moreover, the MIC is more than 125 µg/mL in data set [19]; 1 µg/mL in data set [20]; 63 µg/mL in data set [21]; more than 125 µg/mL in data set [22] (10^-2 dilution); more than 125 µg/mL in data set [22] (setting [30]); 16 µg/mL in data set [24]. For the same compound, the MIC in [25] was more than 125 µg/mL. In addition, the hygroscopicity entry in [4] is “nonhygroscopic”. Moreover, the Blood level was 6.3 and 9.5 in data set [6] (0.5 hours, listed as Ex. 1, in µg/mL (unit assumed)); 7.2 and 10.4 in [6] (1 hour, listed as Ex. 1, in µg/mL (unit assumed)); 3.9 and 4.9 in data set [6] (2 hours, listed as Ex. 1, in µg/mL (unit assumed)); 1.1 in data set [6] (3.5 hours, in µg/mL (unit assumed)). The compound further returned a Bioassay in data set [13] of 696 µg/mg. Besides, in data set [15], the “hydrolysis in water to parent penicillin” value is listed as “rapidly hydrolyzes in water to amoxicillin”. The “stable at room temperature (diluted solution)” value in [16] (10 to 20 mg./ml. of activity) is listed as “at least 24 hours”. Besides, the Mouse blood level in data set [17] (0.25 hours) stood at 7.3 µg/mL; in data set [17] (0.5 hours), 5.4 µg/mL; in data set [17] (1 hour), 2.1 µg/mL; in [17] (1.5 hours) it was 1.1 µg/mL. The “Intramuscular rat blood levels compared with parent penicillin” value in [18] is recorded as “substantially equal to those of amoxicillin”. Besides, in [18], the “Oral rat blood levels compared with parent penicillin” value is “substantially equal to those of amoxicillin”. Also, the “in vitro antibacterial spectrum compared with parent penicillin” value in data set [23] is recorded as “substantially equivalent to that of amoxicillin”.
On to `CC1(C)S[C@@H]2[C@H](N3C(=O)[C@@H](c4ccccc4)NC3c3ccc(S(=O)(=O)O)o3)C(=O)N2[C@H]1C(=O)O` (mixture of isomers) [Example 2, Disodium 6-[D(-)2-(±)5-Sulfo-2-furyl-5-oxo-4-phenyl-1-imidazolidinyl]penicillanate], for which the MIC in data set [1] is 0.5 µg/mL; in [2], 4 ng/mL; in [3] it was more than 125 µg/mL; in data set [5] it was 0.13 µg/mL; in [7] (nutrient broth, 10^-4 dilution, Ex. 1/Ex. 2 figures recalculated on penicillin content, read-out: MIC), 63 µg/mL; in data set [8] it was 32 µg/mL. Besides, the MIC in data set [9] was 63 µg/mL; in [10], more than 125 µg/mL; in data set [11] (SMITHA9537, +50% serum), 0.06 µg/mL; in data set [11] (setting [29]), 0.06 µg/mL; in data set [12], 0.013 µg/mL; in data set [14], 4 ng/mL. Besides, the MIC in data set [19] was more than 125 µg/mL; in data set [20] it was 2 µg/mL; in data set [21] it was 32 µg/mL; in data set [22] (10^-2 dilution), more than 125 µg/mL; in data set [22] (setting [30]), more than 125 µg/mL; in data set [24], 16 µg/mL. Further, the MIC in data set [25] was more than 125 µg/mL. Further, in data set [4], the hygroscopicity entry was “non-hygroscopic”. Further, the Blood level in data set [6] (1 hour, listed as Ex. 2, in µg/mL (unit assumed)) is 2.8 and 5.2; in data set [6] (2 hours, listed as Ex. 2, in µg/mL (unit assumed)), 1.4 and 2.2; in [6] (3.5 hours, listed as Ex. 2, in µg/mL (unit assumed)) it was 0.4 and 0.6. This compound also had a Bioassay in data set [13] of 578 µg/mg. Also, the “hydrolysis in water to parent penicillin” value in [15] is “rapidly hydrolyzes in water”. Further, the “hydrolyzed at 0 time by liquid chromatography” value in data set [15] (to ampicillin, 0 time) is 60-70%. Moreover, the “stable at room temperature (reconstituted aqueous solution)” value in data set [16] (250 mg./ml. of activity) is reported as “at least 24 hours”. The Mouse blood level in data set [17] (0.25 hours) was 6.3 µg/mL; in [17] (0.5 hours) it was 3.7 µg/mL; in data set [17] (1 hour) it was 1.3 µg/mL; in data set [17] (1.5 hours), 0.6 µg/mL. Further, the “Intramuscular rat blood levels compared with parent penicillin” value in data set [18] is recorded as “substantially equal to those of ampicillin”. In [18], the “Oral rat blood levels compared with parent penicillin” value is listed as “substantially equal to those of ampicillin”. Further, in [23], the “in vitro antibacterial spectrum compared with parent penicillin” value is recorded as “substantially equivalent to that of ampicillin”.
In the case of `CC1(C)S[C@@H]2[C@H](NC(=O)[C@H](N)c3ccccc3)C(=O)N2[C@H]1C(=O)O` [sodium salt of ampicillin], the hygroscopicity entry in data set [26] is reported as “hygroscopic”. Besides, the irritation on injection entry in data set [27] is “somewhat irritating on injection”. The “shelf-life of aqueous solution” value in data set [28] was “about one”.
